Data from patent US20050042308A1, “Pharmaceutical composition having cholagogic and litholytic effect and its preparation method” (priority 2001, published 2005).
Marks after values point to notes of the source that are not given here.

Experiments:
[1] = tested on: gallbladder muscle stripe in vitro; assay: Gallbladder smooth muscle contraction caused by acetylcholine; parameters: species or system guinea pig
Experimental: Krebs liquid culture plate, anatomize longitudinally to get 2 pieces of muscle stripe of gallbladder with 10 mm length and […] width. Place the muscle stripe into 37° C. constant temperature Mcrruary bath with Kmbs solution (20 ml), the lower end is fixed on the hook at the bottom of the bath, the upper end is connected to the energy transducer, adjust the oxygen flow gas bubble to tiny and uniform flow, the energy transducer is connected to physiological recorder with prepositive amplifier. Every time after adding test solution observes for more than 3 minutes. When reaching the biggest effect, timely rinse the bath with flushing solution three times with 15 minutes break. After the contraction curve becomes balanced, to make another experiment. […] Krebs solution should be prepared with double-distilled water). After adding acetylcholine, record the contraction curve of gallbladder muscle. From the contraction curve, we can see the amplitude of contraction curve rise. After contraction curve reaches peak-balance, add different concentration LDRS solution. After adding drug solution, the amplitude of contraction curve of gallbladder muscle stripe descends. Record the altitude of amplitude of every phase. The statistic method is below: before drug administration, from the upper and lower limit point of the amplitude contraction curve of gallbladder muscle stripe to respectively line a straight line parallel to the transverse coordinate axis, measure the altitude between the two parallel line as the normal amplitude (The lower line before drug administration is used as basal line). After contraction curve is stable, adding different concentration Ach solution, we can see the amplitude of contraction curve of gallbladder muscle stripe rise, through the peak of amplitude to line a straight line parallel to basal line and measure the altitude between the two parallel line as amplitude of Ach. After curve is stable, add different concentration LDRS stock solution and through the lowest point of amplitude to line parallel to basal line, measure the altitude between the basal line and the lowest line.

fever of the rat = assay: Fever of the rat caused by 2, 4-dinitrophenol; assay type: in vivo; details: Aminopyrine 80(mg), Eulektrol 0.15 ml/kg
Experimental: Get […] healthy male rats with 1 80˜220 g body weight, randomly separate them into 6 groups according to the body weight with 8 rats in each group. The rats in the 1st group are forced to take 0.5% CMC 10 ml/kg. The rats in the 2nd group are forced to take aminopyrine […]. The rats in 3rd group are forced to take Eulektrol 0.15 ml /kg. The rats in the 4th, 5th, 6th are respectively forced to take LDRS 0.077 ml, 0.154 ml, […]. 15 minutes later after drug administration SC 25 mg/ml 2,4-dinitrophenol in the middle of shoulder and back, then measure the anal temperature in 0 hour before drug administration, 0.25 hours, 0.5 hours, 1 hours, 2 hours, 4 hours after drug administration.

[2] = tested on: bile secretion of the rat; assay: Cholagogue experiment in rat (bile efflux coefficient); assay type: in vivo; details: Eulektrol 0.150 ml/kg; for bile efflux coefficient before 1 hour: before drug administration, Cholanic acid 100 mg (pure substance), Dehydrogenized Cholanic acid 100 mg (pure substance) groups; for (%) increase of bile efflux coefficient compared with control group, after 1 hour / (%) increase of bile efflux coefficient compared with control group, after 2 hours / (%) increase of bile efflux coefficient compared with control group, after 3 hours / (%) increase of bile efflux coefficient compared with control group, after 4 hours / bile efflux coefficient after 1 hour / bile efflux coefficient after 2 hours / bile efflux coefficient after 3 hours / bile efflux coefficient after 4 hours: into duodenum, Cholanic acid 100 mg, Dehydrogenized Cholanic acid 100 mg (pure substance)
Experimental: After grouping, the experimental rats are fasting for 16 hours before experiment; anesthetize these rats through ip ethyl carbamate (also named Urethane). After anesthesia, enlace the four limbs; incise the abdomen to find the pylorus of the stomach. Along the pylorus, find common bile duct. Use little forceps to deliminate the surface envelope and reveal the common bile duct, ligate the lower extremity, carefully shear a little ventage, insert plastic duct with external diameter 1 mm into the common bile duct proximal to the liver to drain the bile. After bile drainage volume is stable, record the bile collection volume every 0.5 hour, for two times.

bilirubin in bile = assay: The measure of bilirubin of bile; assay type: in vivo; details: cholanic acid 0.1(g), Eulektrol 0.15(g), Dehydrogenized cholanic acid 0.1(g)
cholelithiasis patients = details: cited from earlier work
[3] = tested on: auricular swollen of mouse caused by dimethylbenzene; assay: Auricular inflammation of mouse caused by dimethylbenzene; assay type: in vivo; details: Eulektrol 0.15 ml/kg; Indothemacin 30 (mg)
granuloma of rat = assay: Granuloma of rat caused by agar; assay type: in vivo; details: Prednisone 30 (mg)
From the text: Thereinto, the inhibition effect of moderates high dose group is compared with control group, P<0.05, P<0.01 respectively, showing significant inhibition effect.

[4] = tested on: ankle swollen of rat caused by carragheen; assay: Ankle swollen of the rat caused by carragheen; assay type: in vivo; details: Eulektrol 0.15 ml/kg, Prednisone acetate 30(mg)
[5] = series with 8 muscle stripes, Ach 10^−4 ml alone, or LDRS (printed 10^−2 ml) added after Ach
[6] = series with 13 muscle stripes, Ach 10^−4 ml alone, or LDRS 10^−2 ml added after Ach

**Q.** With `CC(=O)OCC[N+](C)(C)C` [Ach, acetylcholine] as the compound, how does the gallbladder contraction amplitude [1, 5] read?
**A.** 32.73 ± 6.90 mm

**Q.** What about the “variation rate of amplitude (normal value = 100.0)” value [1, 5] of the same compound?
**A.** 654.6%

**Q.** And the gallbladder contraction amplitude [1, 6]?
**A.** 35.2 ± 6.84 mm

**Q.** What about the “variation rate of amplitude (normal value = 100.0)” value [1, 6] of the same compound?
**A.** 541.5%

**Q.** For `Cc1c(N(C)C)c(=O)n(-c2ccccc2)n1C` [Aminopyrine, aminopyrine], which “the body temperature variation after drug administration” value (“the body temperature variation” for short) (fever of the rat; 0.25 h) is on record?
**A.** −0.21 ± 0.52 °C

**Q.** And the “the body temperature variation” value (fever of the rat; 0.5 h)?
**A.** −0.05 ± 0.81 °C

**Q.** What about the “the body temperature variation” value (fever of the rat; 1 h) of the same compound?
**A.** 0.03 ± 0.79 °C

**Q.** And the “the body temperature variation” value (fever of the rat; 2 h)?
**A.** 0.49 ± 0.47 °C

**Q.** And the “the body temperature variation” value (fever of the rat; 4 h)?
**A.** 0.30 ± 0.67 °C

**Q.** Which results are given for `C[C@H](CCC(=O)O)[C@H]1CC[C@H]2[C@@H]3CCC4CCCC[C@]4(C)[C@H]3CC[C@]12C` (some centres unmarked) [Cholanic acid, cholanic acid]?
**A.** bile efflux coefficient before 1 hour [2]: 0.116 ± 0.04 ml(bile)/100 g · bw; (%) increase of bile efflux coefficient compared with control group, after 1 hour [2]: 6.4%; (%) increase of bile efflux coefficient compared with control group, after 2 hours [2]: 26.8%; (%) increase of bile efflux coefficient compared with control group, after 3 hours [2]: 123.6%; (%) increase of bile efflux coefficient compared with control group, after 4 hours [2]: 45.1%; bile efflux coefficient after 1 hour [2]: 0.166 ± 0.04 ml(bile)/100 g · bw; bile efflux coefficient after 2 hours [2]: 0.189 ± 0.05 ml(bile)/100 g · bw; bile efflux coefficient after 3 hours [2]: 0.246 ± 0.04 ml(bile)/100 g · bw; bile efflux coefficient after 4 hours [2]: 0.164 ± 0.04 ml(bile)/100 g · bw; D-bil in bile (bilirubin in bile; 1 h): 67.3 ± 25.4 mmol/L; F-bil in bile (bilirubin in bile; 1 h): 26.7 ± 20.1 mmol/L; T-BIL in bile (bilirubin in bile; 1 h): 94.1 ± 37.9 mmol/L; D-bil in bile (bilirubin in bile; 2 h): 60.8 ± 31.9 mmol/L; F-bil in bile (bilirubin in bile; 2 h): 16.9 ± 12.8 mmol/L; T-BIL in bile (bilirubin in bile; 2 h): 77.7 ± 38.9 mmol/L; D-bil in bile (bilirubin in bile; 3 h): 55.3 ± 18.2 mmol/L; F-bil in bile (bilirubin in bile; 3 h): 27.2 ± 13.9 mmol/L; T-BIL in bile (bilirubin in bile; 3 h): 82.5 ± 29.0 mmol/L; D-bil in bile (bilirubin in bile; 4 h): 53.0 ± 31.6 mmol/L; F-bil in bile (bilirubin in bile; 4 h): 28.3 ± 10.6 mmol/L; T-BIL in bile (bilirubin in bile; 4 h): 81.3 ± 29.8 mmol/L; efficacy of the therapeutics (reducing the gallstone size, dissolving the gallstone or decreasing the gallstone) (cholelithiasis patients; clinical case report): about 50%; patients with SGOT increase (cholelithiasis patients; treatment of the cholelithiasis): 20%

**Q.** Which results are given for `C[C@H](CCC(=O)O)[C@H]1CC[C@H]2[C@@H]3C(=O)C[C@@H]4CC(=O)CC[C@]4(C)[C@H]3CC(=O)[C@]12C` [Dehydrogenized Cholanic acid, dehydrogenized cholanic acid]?
**A.** bile efflux coefficient before 1 hour [2]: 0.116 ± 0.04 ml(bile)/100 g · bw; (%) increase of bile efflux coefficient compared with control group, after 1 hour [2]: 5.8%; (%) increase of bile efflux coefficient compared with control group, after 2 hours [2]: 57.0%; (%) increase of bile efflux coefficient compared with control group, after 3 hours [2]: 102.7%; (%) increase of bile efflux coefficient compared with control group, after 4 hours [2]: 85.8%; bile efflux coefficient after 1 hour [2]: 0.165 ± 0.08 ml(bile)/100 g · bw; bile efflux coefficient after 2 hours [2]: 0.234 ± 0.07 ml(bile)/100 g · bw; bile efflux coefficient after 3 hours [2]: 0.223 ± 0.05 ml(bile)/100 g · bw; bile efflux coefficient after 4 hours [2]: 0.210 ± 0.07 ml(bile)/100 g · bw; D-bil in bile (bilirubin in bile; 1 h): 57.8 ± 12.8 mmol/L; F-bil in bile (bilirubin in bile; 1 h): 15.4 ± 4.9 mmol/L; T-BIL in bile (bilirubin in bile; 1 h): 73.1 ± 14.1 mmol/L; D-bil in bile (bilirubin in bile; 2 h): 43.4 ± 15.5 mmol/L; F-bil in bile (bilirubin in bile; 2 h): 10.9 ± 11.2 mmol/L; T-BIL in bile (bilirubin in bile; 2 h): 54.3 ± 23.9 mmol/L; D-bil in bile (bilirubin in bile; 3 h): 39.9 ± 10.2 mmol/L; F-bil in bile (bilirubin in bile; 3 h): 8.16 ± 3.1 mmol/L; T-BIL in bile (bilirubin in bile; 3 h): 48.1 ± 14.8 mmol/L; D-bil in bile (bilirubin in bile; 4 h): 45.7 ± 16.4 mmol/L; F-bil in bile (bilirubin in bile; 4 h): 13.6 ± 5.69 mmol/L; T-BIL in bile (bilirubin in bile; 4 h): 59.3 ± 19.7 mmol/L

**Q.** Which “inhibition rate of auricular swelling” value [3] does the source give for `COc1ccc2c(c1)c(CC(=O)O)c(C)n2C(=O)c1ccc(Cl)cc1` [Indothemacin, indomethacin] here?
**A.** 74.0%

**Q.** And the “the auricular weight difference between left and right” value [3]?
**A.** 3.98 ± 2.5 mg/100 g

**Q.** Which results are given for `CC(=O)OCC(=O)[C@@]1(O)CC[C@H]2[C@@H]3CCC4=CC(=O)C=C[C@]4(C)[C@H]3C(=O)C[C@@]21C` [Prednisone acetate]?
**A.** average granuloma coefficient (granuloma of rat): 0.20 ± 0.08; inhibition rate of granuloma coefficient (granuloma of rat): 69.2** %; size of ankle ([4]; 2 h after drug): 2.34 ± 0.17 cm; size of ankle ([4]; 4 h after drug): 2.10 ± 0.15 cm; size of ankle ([4]; 8 h after drug): 1.90 ± 0.19 cm; size of ankle ([4]; 16 h after drug): 2.10 ± 0.211 cm; size of ankle ([4]; 20 h after drug): 2.00 ± 0.009 cm
